The text below walks through data of patent publication EP0410762A1, “Naphthyridine derivatives” (DowElanco, priority 1989, dated 1991).

The structures appear in SMILES notation.

Assay type in all cases: in vivo
The test system of test [1] is Erysiphe graminis tritici. Briefly: Greenhouse Test 1, foliar spray fungicide screen: powdery mildew. The settings on record: disease control rating, host wheat, 400 ppm (+++ at 100 ppm).
In test [2] the test system is Pyricularia oryzae. The following applies: disease control rating; foliar spray; host rice; 400 ppm (+++ at 100 ppm).
In test [3] the test system is Puccinia recondita tritici. Briefly: Greenhouse Test 1, foliar spray fungicide screen: leaf rust. The following applies: disease control rating, host wheat, 400 ppm (+++ at 100 ppm).
Test [4] deals with Botrytis cinerea. Briefly: Greenhouse Test 1, foliar spray fungicide screen: gray mold. The settings on record: disease control rating, host grape berries, 400 ppm (+++ at 100 ppm).
Test [5] relates to Pseudoperonospora cubensis. As to the kind of experiment: Greenhouse Test 1, foliar spray fungicide screen: downy mildew. The settings on record: disease control rating, host squash, 400 ppm (+++ at 100 ppm).
In test [6] the test system is Southern corn rootworm (Diabrotica undecimpuctata howardi Barber). As to the kind of experiment: Mite/insect screen: corn rootworm, treated soil. The following applies: percent mortality, soil treatment; for mortality at 12 ppm: CRW rate 12.00 PPM; for mortality at 24 ppm: CRW rate 24.00 PPM.
Test [7] relates to southern armyworm (Spodopetra eridania Cramer). Briefly: Mite/insect screen: southern armyworm on sprayed squash leaves. The following applies: Spodoptera eridania, percent mortality, leaf spray, read-out: SAW RESULTS; for mortality at 200 ppm: rate 200 PPM; for mortality at 400 ppm: rate 400 PPM.
The subject of test [8] is Twospotted spider mites (Tetranychus urticae Koch). As to the kind of experiment: Mite/insect screen: twospotted spider mites on sprayed squash cotyledons. The following applies: percent mortality, leaf spray, read-out: SM RESULTS; for mortality at 200 ppm: rate 200 PPM; for mortality at 400 ppm: rate 400 PPM.
Test [9] deals with melon aphids (Aphis gossypii Glover). As to the kind of experiment: Mite/insect screen: melon aphids on sprayed squash cotyledons. The settings on record: percent mortality, leaf spray, read-out: MA RESULTS; for mortality at 200 ppm: rate 200 PPM; for mortality at 400 ppm: rate 400 PPM.
In test [10] the test system is Cercospora beticola. As to the kind of experiment: Greenhouse Test 1, foliar spray fungicide screen: leaf spot. The following applies: disease control rating, host sugar beet, 400 ppm (+++ at 100 ppm).
For test [11], the system named is Venturia inaequalis. Briefly: Greenhouse Test 1, foliar spray fungicide screen: apple scab. The settings on record: disease control rating, host apple seedling, 400 ppm (+++ at 100 ppm).
In test [12] the test system is Septoria tritici. Briefly: Greenhouse Test 1, foliar spray fungicide screen: leaf blotch. The settings on record: disease control rating, host wheat, 400 ppm (+++ at 100 ppm).

`Fc1ccc(Oc2ccnc3cnccc23)cc1` [Example 2, 4-(4-fluorophenoxy)-1,7-naphthyridine]: in [1], the “POWD MDEW” value is given as “+ (+ = 20-89% control at 400 ppm)”. In test [2], the “RICE BLAST” value is listed as “- (- = 0-19% control at 400 ppm)”. In addition, the “LEAF RUST” value in test [3] is reported as “+ (+ = 20-89% control at 400 ppm)”. In [4], the “GRAY MOLD” value is “- (- = 0-19% control at 400 ppm)”. Besides, the “DOWN MDEW” value in [5] is given as “+ (+ = 20-89% control at 400 ppm)”. In test [6], this compound yielded a mortality at 12 ppm of 0%. The compound further came in with a mortality at 24 ppm in test [6] of 0%. In addition, the mortality at 200 ppm worked out at 0% in test [7], 40% in test [8] and 30% in test [9]. In addition, the mortality at 400 ppm in test [7], in test [8] and in test [9] was 0% in each case.
Consider `Fc1ccc(Oc2ccnc3ccncc23)cc1` [Example 3, 4-(4-fluorophenoxy)-1,6-naphthyridine], for which the “POWD MDEW” value in [1] is given as “- (- = 0-19% control at 400 ppm)”. Moreover, the “RICE BLAST” value in test [2] is “- (- = 0-19% control at 400 ppm)”. Moreover, the “LEAF RUST” value in test [3] was “- (- = 0-19% control at 400 ppm)”. The “GRAY MOLD” value in test [4] is reported as “- (- = 0-19% control at 400 ppm)”. The “DOWN MDEW” value in test [5] is reported as “- (- = 0-19% control at 400 ppm)”. Moreover, in test [6], the mortality at 12 ppm is 0%. In test [6], this compound showed a mortality at 24 ppm of 0%. Moreover, the mortality at 200 ppm in test [7], in test [8] and in [9] was 0% in each case. Further, the mortality at 400 ppm in test [7], in test [8] and in test [9] was 0% in each case.
For the compound `Clc1ccccc1Oc1ccnc2ncccc12` [Example 8, 4-(2-chlorophenoxy)-1,8-naphthyridine], in [1], the “POWD MDEW” value was “- (- = 0-19% control at 400 ppm)”. The “RICE BLAST” value in [2] is “+ (+ = 20-89% control at 400 ppm)”. In [3], the “LEAF RUST” value was “+ (+ = 20-89% control at 400 ppm)”. Also, the “GRAY MOLD” value in test [4] is reported as “- (- = 0-19% control at 400 ppm)”. For the same compound, in test [5], the “DOWN MDEW” value is listed as “++ (++ = 90-100% control at 400 ppm)”. In test [6], this compound had a mortality at 12 ppm of 0% and a mortality at 24 ppm of 0%. In addition, in test [7], the mortality at 200 ppm turned out to be 0% and the mortality at 400 ppm was determined as 0%. In [8], the mortality at 200 ppm is 0% and the mortality at 400 ppm is 0%. Moreover, in test [9], the mortality at 200 ppm came to 0% and the mortality at 400 ppm is 0%.
For the compound `CCOc1ccc(CCCOc2ccnc3cccnc23)cc1` [Example 6, 4-[3-(4-ethoxyphenyl)propoxy]-1,5-naphthyridine], in test [1], the “POWD MDEW” value is reported as “- (- = 0-19% control at 400 ppm)”. Moreover, the “RICE BLAST” value in [2] is “- (- = 0-19% control at 400 ppm)”. Moreover, the “LEAF RUST” value in test [3] is recorded as “- (- = 0-19% control at 400 ppm)”. Further, the “GRAY MOLD” value in test [4] was “- (- = 0-19% control at 400 ppm)”. For the same compound, the “DOWN MDEW” value in test [5] is recorded as “- (- = 0-19% control at 400 ppm)”. In [6], this compound had a mortality at 12 ppm of 0% and a mortality at 24 ppm of 0%. Besides, in test [7], the mortality at 200 ppm is 0% and the mortality at 400 ppm came out at 0%. Besides, in test [8], the mortality at 200 ppm turned out to be 0% and the mortality at 400 ppm is 0%. In test [9], the mortality at 200 ppm stood at 0% and the mortality at 400 ppm is 0%.
With `CC(C)(C)c1ccc(CCOc2ccnc3cccnc23)cc1` [Example 5, 4-[2-[4-(t-butyl)phenyl]ethoxy]-1,5-naphthyridine], the “POWD MDEW” value in test [1] was “+ (+ = 20-89% control at 400 ppm)”. The “RICE BLAST” value in test [2] was “++ (++ = 90-100% control at 400 ppm)”. The “LEAF RUST” value in test [3] is recorded as “++ (++ = 90-100% control at 400 ppm)”. Moreover, the “GRAY MOLD” value in test [4] is “- (- = 0-19% control at 400 ppm)”. In [5], the “DOWN MDEW” value is “+++ (+++ = 90-100% control at 100 ppm)”. For the same compound, the mortality at 12 ppm in test [6] came to 0%. In [6], this compound displayed a mortality at 24 ppm of 0%. The mortality at 200 ppm in test [7] worked out at 0%; in test [8], 100%; in test [9], 50%. Moreover, the mortality at 400 ppm was determined as 0% in test [7], 100% in test [8] and 80% in test [9].
Take `CCOc1ccc(CCOc2ccnc3cccnc23)cc1` [Example 9, 4-[2-(4-ethoxyphenyl)ethoxy]-1,5-naphthyridine]: in test [1], the “POWD MDEW” value was “+ (+ = 20-89% control at 400 ppm)”. Moreover, in test [2], the “RICE BLAST” value is recorded as “++ (++ = 90-100% control at 400 ppm)”. Further, the “LEAF RUST” value in [3] is on record as “+++ (+++ = 90-100% control at 100 ppm)”. The “GRAY MOLD” value in test [4] is recorded as “- (- = 0-19% control at 400 ppm)”. In test [5], the “DOWN MDEW” value is “++ (++ = 90-100% control at 400 ppm)”. Moreover, in [6], the mortality at 12 ppm is 0% and the mortality at 24 ppm stood at 0%. In addition, in [7], the mortality at 200 ppm worked out at 0% and the mortality at 400 ppm was 0%. In test [8], the mortality at 200 ppm came to 40% and the mortality at 400 ppm is 80%. In [9], the mortality at 200 ppm was determined as 100% and the mortality at 400 ppm worked out at 100%.
For `Fc1ccc(Oc2ccnc3cccnc23)cc1` [Example 4, 4-(4-fluorophenoxy)-1,5-naphthyridine], in test [1], the “POWD MDEW” value is recorded as “+ (+ = 20-89% control at 400 ppm)”. For the same compound, the “RICE BLAST” value in test [2] was “+ (+ = 20-89% control at 400 ppm)”. Moreover, the “LEAF RUST” value in test [3] was “+ (+ = 20-89% control at 400 ppm)”. In test [4], the “GRAY MOLD” value is on record as “- (- = 0-19% control at 400 ppm)”. The “DOWN MDEW” value in test [5] is “++ (++ = 90-100% control at 400 ppm)”. Moreover, the mortality at 24 ppm in [6] was 0%. The mortality at 400 ppm in test [7] came out at 0%; in test [8], 80%; in test [9], 80%.
`Fc1ccc(Oc2ccnc3ncccc23)cc1` [Example 1, 4-(4-fluorophenoxy)-1,8-naphthyridine]: the “POWD MDEW” value in test [1] is reported as “+ (+ = 20-89% control at 400 ppm)”. In addition, in test [2], the “RICE BLAST” value is reported as “- (- = 0-19% control at 400 ppm)”. Further, in [3], the “LEAF RUST” value is recorded as “++ (++ = 90-100% control at 400 ppm)”. Besides, the “GRAY MOLD” value in [4] is “- (- = 0-19% control at 400 ppm)”. In addition, the “DOWN MDEW” value in test [5] was “++ (++ = 90-100% control at 400 ppm)”. In [6], the mortality at 12 ppm was determined as 0% and the mortality at 24 ppm was determined as 0%. In test [7], the mortality at 200 ppm was 0% and the mortality at 400 ppm was 0%. Besides, in test [8], the mortality at 200 ppm came to 0% and the mortality at 400 ppm came out at 0%. Besides, in [9], the mortality at 200 ppm came out at 0% and the mortality at 400 ppm amounted to 0%.
On to `c1ccc(CCNc2ccnc3cccnc23)cc1` [Example 10, N-(2-phenylethyl)-1,5-naphthyridin-4-amine], for which the “POWD MDEW” value in test [1] was “+ (+ = 20-89% control at 400 ppm)”. Besides, the “RICE BLAST” value in [2] was “+ (+ = 20-89% control at 400 ppm)”. For the same compound, in test [3], the “LEAF RUST” value was “+ (+ = 20-89% control at 400 ppm)”. Also, the “GRAY MOLD” value in test [4] is recorded as “- (- = 0-19% control at 400 ppm)”. Also, the “DOWN MDEW” value in test [5] is “+++ (+++ = 90-100% control at 100 ppm)”. The “LEAF SPOT” value in [10] was “+ (+ = 20-89% control at 400 ppm)”. The “APPL SCAB” value in test [11] was “+ (+ = 20-89% control at 400 ppm)”. Moreover, the “LEAF BLOT” value in [12] was “- (- = 0-19% control at 400 ppm)”. The same compound yielded a mortality at 12 ppm in [6] of 0%. The mortality at 200 ppm in [7], in [8] and in test [9] was 0% in each case.
Consider `CC(C)(C)c1ccc(CCNc2ccnc3cccnc23)cc1` [Example 7, N-[2-[4-(t-butyl)phenyl]ethyl]-1,5-naphthyridin-4-amine], for which the “POWD MDEW” value in [1] is on record as “++ (++ = 90-100% control at 400 ppm)”. In [2], the “RICE BLAST” value is given as “++ (++ = 90-100% control at 400 ppm)”. For the same compound, the “LEAF RUST” value in test [3] is on record as “+++ (+++ = 90-100% control at 100 ppm)”. For the same compound, the “GRAY MOLD” value in test [4] was “- (- = 0-19% control at 400 ppm)”. The “DOWN MDEW” value in test [5] is on record as “+++ (+++ = 90-100% control at 100 ppm)”. Further, in test [6], the mortality at 12 ppm came to 0% and the mortality at 24 ppm came out at 0%. In [7], the mortality at 200 ppm stood at 0% and the mortality at 400 ppm was determined as 0%. Besides, in test [8], the mortality at 200 ppm amounted to 90% and the mortality at 400 ppm stood at 100%. In addition, in test [9], the mortality at 200 ppm stood at 90% and the mortality at 400 ppm amounted to 100%.
